Source: patent US10760052B2, “Method of inhibiting tau phosphorylation” (priority 2012, dated 2020)

Target: T1, mu opiate receptor (MOR) (Rattus norvegicus, UniProt P33535)
T1 construct: from tissue; host or cells: striatum (membrane preparation)
Assay type: biochemical
Conditions: for Concentration of FLNA-Binding Compound as Agonist 0.1 μM / Concentration of FLNA-Binding Compound as Agonist 1 μM / Concentration of FLNA-Binding Compound as Agonist 1 μM + BFNA: [35S]GTPγS binding to Gαo in striatal membranes; for Concentration of FLNA-Binding Compound as Agonist 0.1 μM: compound 0.1 μM; for Concentration of FLNA-Binding Compound as Agonist 1 μM: compound 1 μM; for Concentration of FLNA-Binding Compound as Agonist 1 μM + BFNA: compound 1 μM plus 1 μM β-funaltrexamine (MOR antagonist); for [35S]GTPγS binding, FLNA-Binding Compound as Agonist at 0.1 μM: 0.1 μM compound; for [35S]GTPγS binding, FLNA-Binding Compound as Agonist at 0.1 μM / [35S]GTPγS binding, FLNA-Binding Compound as Agonist at 1 μM: striatal membranes; for [35S]GTPγS binding, FLNA-Binding Compound as Agonist at 0.1 μM / [35S]GTPγS binding, FLNA-Binding Compound as Agonist at 1 μM + BFNA / [35S]GTPγS binding, FLNA-Binding Compound as Agonist at 1 μM: Series C-2; for [35S]GTPγS binding, FLNA-Binding Compound as Agonist at 1 μM + BFNA: 1 μM compound + 1 μM β-FNA (selective MOR antagonist); for [35S]GTPγS binding, FLNA-Binding Compound as Agonist at 1 μM: 1 μM compound
Experimental: To assess the mu opiate receptor (MOR) agonist activity of positive compounds from the FLNA screening, compounds were tested in a [^35S]GTPγS binding assay using striatal membranes. […] This assay measures a functional consequence of receptor occupancy at one of the earliest receptor-mediated events. The assay permits for traditional pharmacological parameters of potency, efficacy and antagonist affinity, with the advantage that agonist measures are not subjected to amplification or other modulation that may occur when analyzing parameters further downstream of the receptor.
Thus, striatal tissue was homogenized in 10 volumes of ice cold 25 mM HEPES buffer, pH 7.4, which contained 1 mM EGTA, 100 mM sucrose, 50 μg/ml leupeptin, 0.04 mM PMSF, 2 μg/ml soybean trypsin inhibitor and 0.2% 2-mercaptoethanol. The homogenates were centrifuged at 800×g for 5 minutes and the supernatants were centrifuged at 49,000×g for 20 minutes.
The resultant striatal membrane preparation (200 μg) was admixed and maintained (incubated) at 30° C. for 5 minutes in reaction buffer as above that additionally contained 1 mM MgCl2 and 0.5 nM [^35S]GTPγS (0.1 μCi/assay, PerkinElmer Life and Analytical Sciences) in a total volume of 250 μl and continued for 5 minutes in the absence or presence of 0.1-10 μM of an assayed compound of interest. The reaction was terminated by dilution with 750 μl of ice-cold reaction buffer that contained 20 mM MgCl2 and 1 mM EGTA and immediate centrifugation at 16,000×g for 5 minutes.
Normal rabbit serum (1 μl) was added to 1 ml of lysate and incubated at 25° C. for 30 minutes. Nonspecific immune complexes were removed by incubation with 25 μl of protein A/G-conjugated agarose beads at 25° C. for 30 minutes followed by centrifugation at 5,000×g at 4° C. for 5 minutes. The supernatant was divided and separately incubated at 25° C. for 30 minutes with antibodies raised against Gαo proteins (1:1,000 dilutions).
The immunocomplexes so formed were collected by incubation at 25° C. for 30 minutes with 40 μl of agarose-conjugated protein A/G beads and centrifugation at 5,000×g at 4° C. for 5 minutes. The pellet was washed and suspended in buffer containing 50 mM Tris-HCl, pH 8.0, and 1% NP-40. The radioactivity in the suspension was determined by liquid scintillation spectrometry.

T1 sequence (P33535 whole entry): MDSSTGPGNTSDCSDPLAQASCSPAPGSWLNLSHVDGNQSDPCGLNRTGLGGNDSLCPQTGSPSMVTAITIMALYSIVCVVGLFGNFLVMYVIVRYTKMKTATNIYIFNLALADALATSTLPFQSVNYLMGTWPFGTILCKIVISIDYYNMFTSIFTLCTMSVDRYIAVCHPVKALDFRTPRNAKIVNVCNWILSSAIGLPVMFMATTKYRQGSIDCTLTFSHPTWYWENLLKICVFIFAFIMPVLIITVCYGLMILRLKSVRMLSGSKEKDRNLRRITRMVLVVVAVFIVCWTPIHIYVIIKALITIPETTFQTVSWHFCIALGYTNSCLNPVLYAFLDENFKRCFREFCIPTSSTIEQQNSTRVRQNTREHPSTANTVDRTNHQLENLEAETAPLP

| SMILES | % DAMGO (0.1 μM) | % DAMGO (1 μM) | % DAMGO + BFNA | Concentration of FLNA-Binding Compound as Agonist 0.1 μM | Concentration of FLNA-Binding Compound as Agonist 1 μM | Concentration of FLNA-Binding Compound as Agonist 1 μM + BFNA | [35S]GTPγS binding, FLNA-Binding Compound as Agonist at 0.1 μM | [35S]GTPγS binding, FLNA-Binding Compound as Agonist at 1 μM + BFNA | [35S]GTPγS binding, FLNA-Binding Compound as Agonist at 1 μM |
| --- | --- | --- | --- | --- | --- | --- | --- | --- | --- |
| O=S(=O)(c1cccc(OC(F)(F)F)c1)N1CCC2(CC1)OCCN2S(=O)(=O)c1cccc(OC(F)(F)F)c1 [Compound C0005] | 105.4% | 85.1% | 319.4% | 180.4% | 227.2% | 166.4% |  |  |  |
| CC(C)c1ccc(S(=O)(=O)N2CCC3(CC2)OCCN3S(=O)(=O)c2ccc(C(C)C)cc2)cc1 [Compound C0007] | 46.0% | 70.5% | 17.0% | 79.1% | 195.0% | 10.9% |  |  |  |
| COc1ccc(C(=O)CC2c3c(cc4c(c3OC)OCO4)CC[N+]2(C)C)c(F)c1 (stereo not drawn) [Compound B0027] | 82.3% | 100.0% | 41.5% | 140.9% | 266.9% | 21.6% |  |  |  |
| COc1ccccc1CCC(=O)CC1c2c(cc3c(c2OC)OCO3)CC[N+]1(C)C (stereo not drawn) [Compound B0045] | 82.6% | 83.4% | 257.1% | 129.3% | 193.1% | 83.8% |  |  |  |
| COc1ccc(CCC(O)CC2c3c(cc4c(c3OC)OCO4)CC[N+]2(C)C)cc1 (stereo not drawn) [Compound B0049] | 102.8% | 143.1% | 506.5% | 181.6% | 364.0% | 133.2% |  |  |  |
| COc1ccc(CCC(=O)CC2c3c(cc4c(c3OC)OCO4)CC[N+]2(C)C)cc1OC (stereo not drawn) [Compound B0042] | 39.6% | 42.3% | 163.9% | 69.9% | 107.5% | 43.1% |  |  |  |
| COc1ccc(S(=O)(=O)N2CCOC23CCCNC3)cc1 (stereo not drawn) [Compound C0145M-3] | 112.2% | 88.7% | 95.3% |  |  |  | 193.0% | 87.0% | 289.2% |
| COc1ccc(NC(=O)N2CCC3(CC2)OCCN3C(=O)Nc2ccc(OC)cc2)cc1 [Compound C0151M] | 201.6% | 122.0% | 233.1% | 346.8% | 397.6% | 212.8% |  |  |  |
| CC(=O)c1ccc(S(=O)(=O)N2CCOC23CCN(C)CC3)cc1 [Compound C0093M] | 81.3% | 96.4% | 127.5% |  |  |  | 140.0% | 44.0% | 211.8% |
| OC(COc1ccc(Br)c(F)c1)CN1CCc2ccccc2C1 (stereo not drawn) [Compound A0057] | 79.6% | 83.3% | 112.3% | 124.2% | 192.1% | 44.8% |  |  |  |
| O=S(=O)(c1ccccc1)N1CCC2(CC1)OCCN2S(=O)(=O)c1ccccc1 [Compound C0016] | 100.4% | 83.3% | 150.9% | 172.7% | 230.5% | 96.7% |  |  |  |
| CN1CCC2(CC1)OCCN2S(=O)(=O)c1ccc(S(C)(=O)=O)cc1 [Compound C0106M] | 102.5% | 108.3% | 246.7% |  |  |  | 171.8% | 117.2% | 240.7% |
